Experimental data reported in patent US10806121B2, “Animal litter containing a pheromone composition” (Sergeant's Pet Care Products, LLC, priority 2014, dated 2020).

System: cats
Assay: Study 1: cat litter preference, pheromone-treated litter versus control litter
Assay type: in vivo
Conditions: for percentage preference (% of the cats using the treated litter): litter treated at 10 μg/3-lb (7.3 μg/kg), choice against control litter over 48 hours, 50% = no effect; for Litter Type Use, g, TRT (weights of litter after 2 days): treated litter box, 10 μg/3-lb, SE = 0.023; for Relative Difference, % / Significantly Different: treated versus control litter weight after 2 days; for effect on cats' litter preference: treated versus control litter, 48 hours
Protocol: In Study 1, four different treatments were tested: Androstenone (ANDRO); cat urinary pheromone, 3-mercapto-3-methyl-1-butanol (CAT); rabbit pheromone, 2-methylbut-2-enal (RP); and both the cat urinary pheromone and the rabbit pheromone (CAT+RP). 40 individual cats were used in this study to assess their preference to or aversion from a control litter versus a litter under one of the four treatments. Each treatment was tested with 10 cats. Litter was divided into 3 lb aliquots, and each aliquot was either used as a control or was mixed with a pheromone (or a pheromone combination) to be tested at a level of 10 μg/3-lb (or 7.3 μg/kg).
On Day 0, each cat was placed into an assigned chamber randomly placed with two litter boxes, one control and one treated. Each of the two litter boxes was weighed and the weight was recorded. The camera in the chamber was properly aligned to give a full view of the chamber and started taping on Day 0. On Day 1, 24 hours after the start of taping on Day 0, each of the two litter boxes in the chamber was weighed and the weight was recorded. On Day 2, 48 hours after the start of taping on Day 0, each of the two litter boxes in the chamber was again weighed. Litter can be disposed of after weighing on Day 2, and the camera was then turned off. The weights of the litter boxes over the 48 hours were used to determine whether the litter was used or not, and at which preference level.
The data were expressed as both a percentage preference (% of the cats using the treated litter in each treatment group) and by the weight of the litter (the litter gets heavier as it is soiled). It was expected that if the added pheromone had no effect on litter preference, 50% of the cats would use the treated litter and 50% would use the control litter. […] Further, the weight difference between a control litter or litter under treatment was used to show the relative strength of the effect of a particular treatment on cat's litter use behavior. During the study, some cats (N=3; 2 in CAT+RP and 1 in RP) spilled their litter and their data were unreliable and were not included.

| Structure (SMILES) | percentage preference (% of the cats using the treated litter) | Litter Type Use, g, TRT (weights of litter after 2 days) | Relative Difference, % | Significantly Different | effect on cats' litter preference |
| --- | --- | --- | --- | --- | --- |
| CC(C)(S)CCO [CAT, 3-mercapto-3-methyl-1-butanol] | 40% | 0.562 g | −43% | Yes | slight aversion |
| C[C@]12CCC(=O)C[C@@H]1CC[C@@H]1[C@@H]2CC[C@]2(C)C=CC[C@@H]12 [ANDRO, Androstenone] | 50% | 0.571 g | −11% | No | did not provide any attraction |
